Experimental findings from patent publication US8592413B2, “Therapeutic substituted cyclopentanes” (Allergan, Inc., priority 2008, dated 2013) are described below.

Some results are limits rather than exact numbers.

As usually defined, the EC50 is the concentration at which the effect is half-maximal. Read a high EC50 as a need for much substance. As a reminder, the Ki is the equilibrium dissociation constant of an inhibitor or competing ligand from its target. A lower Ki goes with higher affinity.

One assay deals with T1, hDP (Homo sapiens, UniProt Q13258).
T1 sequence (Q13258 1-359): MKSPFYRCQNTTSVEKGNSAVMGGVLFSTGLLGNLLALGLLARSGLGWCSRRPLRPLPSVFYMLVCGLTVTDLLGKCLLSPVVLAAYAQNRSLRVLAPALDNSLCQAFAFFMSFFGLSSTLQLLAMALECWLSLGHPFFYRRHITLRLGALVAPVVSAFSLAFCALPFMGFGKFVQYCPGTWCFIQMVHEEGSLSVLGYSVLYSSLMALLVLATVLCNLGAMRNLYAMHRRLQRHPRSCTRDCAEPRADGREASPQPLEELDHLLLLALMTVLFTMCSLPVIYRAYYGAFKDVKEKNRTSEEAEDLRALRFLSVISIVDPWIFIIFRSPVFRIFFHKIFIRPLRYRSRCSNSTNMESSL
Nature of the assay: Other receptors: hDP EC50. The class given is cell-based. From the text: (§1) US 2007/0129552, incorporated by reference herein, describes the methods used to obtain the in vitro data in the table below.

Assay [1] concerns the target T2, EP2 (Homo sapiens, UniProt P43116). Nature of the assay: EP2 cAMP. The class given is cell-based.
Excerpt: as §1

For assay [2], the target named is T2, EP2. Description: EP2 Ki (binding).
Excerpt: as §1

Assay [3] concerns the target T3, EP4 (Homo sapiens, UniProt P35408). Nature of the assay: EP4 flipr. The class given is cell-based.
Excerpt: as §1

Another assay has as its target T4, hEP3A (Homo sapiens, UniProt P43115).
T4 sequence (P43115 1-390): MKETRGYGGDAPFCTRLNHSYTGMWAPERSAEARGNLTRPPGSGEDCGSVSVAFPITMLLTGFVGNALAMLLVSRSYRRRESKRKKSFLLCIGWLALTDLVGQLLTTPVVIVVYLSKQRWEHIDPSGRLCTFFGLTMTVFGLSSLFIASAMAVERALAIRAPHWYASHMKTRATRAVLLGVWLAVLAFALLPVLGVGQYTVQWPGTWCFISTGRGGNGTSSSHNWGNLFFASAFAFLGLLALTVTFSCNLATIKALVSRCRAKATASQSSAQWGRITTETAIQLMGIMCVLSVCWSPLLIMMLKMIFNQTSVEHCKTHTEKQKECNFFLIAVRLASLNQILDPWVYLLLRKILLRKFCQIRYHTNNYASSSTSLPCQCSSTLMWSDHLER
Description: Other receptors: hEP3A EC50. The class given is cell-based.
Excerpt: as §1

In the next assay the target is T5, hTP (Homo sapiens, UniProt P21731).
T5 sequence (P21731 1-343): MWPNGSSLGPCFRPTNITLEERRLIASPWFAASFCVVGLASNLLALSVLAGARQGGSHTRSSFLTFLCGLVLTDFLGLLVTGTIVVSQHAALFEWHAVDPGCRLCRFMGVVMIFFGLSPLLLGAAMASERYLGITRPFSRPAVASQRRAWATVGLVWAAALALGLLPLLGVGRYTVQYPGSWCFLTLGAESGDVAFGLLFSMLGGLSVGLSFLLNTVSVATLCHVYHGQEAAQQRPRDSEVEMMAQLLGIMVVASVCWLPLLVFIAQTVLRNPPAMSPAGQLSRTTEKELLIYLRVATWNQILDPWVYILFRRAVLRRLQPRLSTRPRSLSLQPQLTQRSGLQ
Description: Other receptors: hTP EC50. The assay is classed as cell-based.
Excerpt: as §1

In assay [4] the target is T2, EP2. Nature of the assay: EP2 flipr. The class given is cell-based.
Excerpt: as §1

Assay [5] deals with T3, EP4. Description: EP4 KI (binding).
Excerpt: as §1

The target of a further assay is hIP (Homo sapiens, UniProt P43119). Description: Other receptors: hIP EC50. The assay is classed as cell-based.
Sequence of hIP (P43119 whole entry): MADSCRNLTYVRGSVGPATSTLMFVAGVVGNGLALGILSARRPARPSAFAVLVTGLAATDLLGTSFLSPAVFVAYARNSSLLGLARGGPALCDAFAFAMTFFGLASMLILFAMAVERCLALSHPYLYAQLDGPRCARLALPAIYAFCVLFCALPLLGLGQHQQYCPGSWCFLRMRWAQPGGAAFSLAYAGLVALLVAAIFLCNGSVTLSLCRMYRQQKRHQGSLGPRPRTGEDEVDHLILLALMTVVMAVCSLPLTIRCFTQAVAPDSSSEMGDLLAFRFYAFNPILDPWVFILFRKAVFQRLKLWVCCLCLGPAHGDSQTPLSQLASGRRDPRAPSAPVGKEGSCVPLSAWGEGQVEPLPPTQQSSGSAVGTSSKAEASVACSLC
Excerpt: as §1

A further assay concerns the target hFP (Homo sapiens, UniProt P43088). Description: Other receptors: hFP EC50. The class given is cell-based.
Excerpt: as §1

Another assay deals with T6, hEP1 (Homo sapiens, UniProt P34995).
T6 sequence (P34995 1-402): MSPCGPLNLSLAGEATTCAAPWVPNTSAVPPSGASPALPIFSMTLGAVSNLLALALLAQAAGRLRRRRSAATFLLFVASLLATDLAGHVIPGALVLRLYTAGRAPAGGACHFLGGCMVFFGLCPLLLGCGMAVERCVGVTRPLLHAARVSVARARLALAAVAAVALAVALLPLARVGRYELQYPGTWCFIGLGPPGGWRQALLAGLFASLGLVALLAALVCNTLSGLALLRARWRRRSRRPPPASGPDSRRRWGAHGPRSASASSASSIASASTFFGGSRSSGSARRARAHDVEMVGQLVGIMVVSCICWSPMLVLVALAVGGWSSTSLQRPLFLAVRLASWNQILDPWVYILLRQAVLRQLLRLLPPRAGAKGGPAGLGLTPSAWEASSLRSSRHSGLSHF
Nature of the assay: Other receptors: hEP1 EC50. The class given is cell-based.
Excerpt: as §1

T2 sequence (P43116 whole entry): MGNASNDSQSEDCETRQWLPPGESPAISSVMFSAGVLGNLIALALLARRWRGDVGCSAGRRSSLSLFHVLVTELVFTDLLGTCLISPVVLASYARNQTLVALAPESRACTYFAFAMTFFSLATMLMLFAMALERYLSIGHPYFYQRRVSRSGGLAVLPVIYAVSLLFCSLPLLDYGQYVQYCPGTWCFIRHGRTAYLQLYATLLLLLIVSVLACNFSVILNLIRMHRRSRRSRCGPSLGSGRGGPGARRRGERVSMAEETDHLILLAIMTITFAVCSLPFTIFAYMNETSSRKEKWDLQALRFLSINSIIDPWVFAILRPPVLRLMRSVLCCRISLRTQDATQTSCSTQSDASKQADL
T3 sequence (P35408 whole entry): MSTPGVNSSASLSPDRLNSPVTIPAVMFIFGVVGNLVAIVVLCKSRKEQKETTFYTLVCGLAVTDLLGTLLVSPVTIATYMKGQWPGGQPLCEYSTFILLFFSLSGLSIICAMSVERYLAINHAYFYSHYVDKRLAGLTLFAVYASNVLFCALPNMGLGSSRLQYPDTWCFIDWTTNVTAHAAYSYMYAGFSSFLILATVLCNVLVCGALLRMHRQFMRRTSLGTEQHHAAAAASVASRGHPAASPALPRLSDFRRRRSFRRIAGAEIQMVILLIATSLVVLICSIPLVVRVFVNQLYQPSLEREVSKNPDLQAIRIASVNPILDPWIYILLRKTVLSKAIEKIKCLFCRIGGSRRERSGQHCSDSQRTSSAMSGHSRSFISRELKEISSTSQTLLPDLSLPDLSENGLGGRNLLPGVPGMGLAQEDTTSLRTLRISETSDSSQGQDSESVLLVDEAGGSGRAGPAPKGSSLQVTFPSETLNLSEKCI
Sequence of hFP (P43088 whole entry): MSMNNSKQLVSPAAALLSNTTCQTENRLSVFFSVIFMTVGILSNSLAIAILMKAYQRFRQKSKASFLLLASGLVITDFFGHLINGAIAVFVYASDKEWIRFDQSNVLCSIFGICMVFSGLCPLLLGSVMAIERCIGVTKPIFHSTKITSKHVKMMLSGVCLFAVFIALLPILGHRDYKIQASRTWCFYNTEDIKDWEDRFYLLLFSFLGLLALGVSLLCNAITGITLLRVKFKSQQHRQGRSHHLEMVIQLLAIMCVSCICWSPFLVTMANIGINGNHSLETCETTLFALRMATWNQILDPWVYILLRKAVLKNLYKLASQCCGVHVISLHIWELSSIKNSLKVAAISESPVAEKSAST

`CN(Cc1ccccc1)C[C@@H]1[C@@H](CCCc2ccc(C(=O)O)s2)[C@H](Cl)C[C@H]1O`: the results for the EC50 at hDP and at EP2 [1] were 5620 nM and 3.6 nM, respectively. Moreover, the Ki at EP2 [2] stood at 24 nM.
For `O=C(O)c1ccc(CCC[C@@H]2[C@@H](CCCc3cc(Cl)cc(Cl)c3)[C@H](O)C[C@H]2Cl)s1`, the EC50 on EP4 [3] stood at 10100 nM; on hEP3A, 8060 nM; on EP2 [1], 1 nM; on hTP, 7110 nM; on EP2 [4] it was 9920 nM. Also, the Ki on EP2 [2] was found to be 0.6 nM; at EP4 [5] it was 999 nM.
As for `CCc1cccc(COC[C@@H]2[C@@H](CCCc3ccc(C(=O)O)s3)[C@H](Cl)C[C@H]2O)c1`, the EC50 was 6540 nM at EP4 [3]; above 10000 nM at hDP; 0.5 nM at EP2 [1]; 2520 nM at hTP; 255 nM on EP2 [4]. In addition, the Ki at EP2 [2] was found to be 3 nM; on EP4 [5], 606 nM.
Turning to `CCc1cccc(CCC[C@@H]2[C@@H](CCCc3ccc(C(=O)O)s3)[C@H](Cl)C[C@H]2O)c1`, the results for the EC50 on EP4 [3], at EP2 [1] and at EP2 [4] were above 10000 nM, 0.9 nM and 13800 nM, respectively. The Ki at EP2 [2] was determined as 4 nM; at EP4 [5], 1840 nM.
In the case of `O=C(O)CCC/C=C\C[C@@H]1[C@@H](COCc2cccc(C(F)(F)F)c2)[C@H](O)C[C@H]1Cl`, the EC50 on EP4 [3] is 2330 nM; at hDP, above 10000 nM; at hEP3A, 88 nM; on EP2 [1], 5 nM; at hIP, 7 nM; at hFP, 22500 nM. The EC50 turned out to be 97 nM on hEP1, 11 nM on hTP and 195 nM at EP2 [4]. Moreover, the Ki worked out at 214 nM at EP2 [2] and 3170 nM on EP4 [5].
As to `O=C(O)c1ccc(CCC[C@@H]2[C@@H](CCCc3cccc(C(F)(F)F)c3)[C@H](O)C[C@H]2Cl)s1`, the EC50 was 0.3 nM on EP2 [1], 4260 nM on hEP1 and 2520 nM at EP2 [4]. For the same molecule, the Ki turned out to be 0.5 nM at EP2 [2] and 740 nM on EP4 [5].
The molecule `O=C(O)c1ccc(CCC[C@@H]2[C@@H](CNCc3ccccc3)[C@H](O)C[C@H]2Cl)s1` registered an EC50 at EP2 [1] of 6 nM. Besides, at EP2 [2], the inhibition constant (Ki) was determined as 143 nM.
Regarding `O=C(O)c1ccc(CCC[C@@H]2[C@@H](CCCc3ccccc3)[C@H](O)C[C@H]2Cl)s1`, the EC50 came out at 4960 nM on EP4 [3], 6780 nM on hDP and 0.6 nM at EP2 [1]. Moreover, the Ki on EP2 [2] was 3 nM; at EP4 [5] it was 2160 nM.
In the case of `O=C(O)c1ccc(CCC[C@@H]2[C@@H](C=C=Cc3cccc(C(F)(F)F)c3)[C@H](O)C[C@H]2Cl)s1`, the EC50 at EP2 [1] worked out at 1.7 nM; at EP2 [4], 3260 nM. Also, the affinity on EP2 [2], expressed as Ki, was 11 nM.
Consider `O=C(O)c1ccc(CCC[C@@H]2[C@@H](C=C=Cc3ccccc3)[C@H](O)C[C@H]2Cl)s1`, for which the EC50 at EP4 [3] stood at 11100 nM; at hDP it was 10200 nM; on EP2 [1], 1.7 nM. Besides, the figures for the Ki at EP2 [2] and at EP4 [5] were 6 nM and 715 nM, respectively.
